From patent US20060241177A1, “Novel compounds, pharmaceutical compositions containing same, and methods of use for same” (priority 2002, published 2006)
pIC50: −log10 of the molar value.

What was measured:
[1] = test system: HCT-116 human colon cancer xenografts; assay: In vivo anti-tumor test, HCT-116 subcutaneous flank xenografts; design: species or system nu/nu female mice; conditions: 10 mg/kg i.p. repeated, 11 treated animals, day 10, from repeated i.p. injection
Description: In Vivo Testing for Anti-Tumor Activity
Subcutaneous flank xenografts of the human colon cancer cell line, HCT-116 in nu/nu female mice (Harlan) were used to study the anti-tumor effects of Compound 1 in vivo. All animal experiments complied with institutional animal care guidelines. 10^7 HCT-116 cells (˜0.1 ml packed cells) were xenografted from culture in DMEM supplemented with 10% FBS into […]. Treatment began when measurable tumors developed about 3 days after inoculation. Compound 1 (10 mg/kg) was diluted into 40 μl DMSO and treated intraperitoneally (i.p.) 11 animals received JMM-III-231 10 mg/kg, i.p., at days indicated by arrows, and 11 received DMSO control. Tumors were measured on days indicated. […] Error bars represent standard error of the mean.

viral HIV protease = viral HIV protease (Human immunodeficiency virus type 1 group M subtype B, UniProt P04585); conditions: Moelling et al. 1990; cited from earlier work
[2] = target: rat liver acyl-CoA synthetase; conditions: Tomoda et al. 1987; Omura et al. 1986; read-out: 50% inhibition of rat liver acyl-CoA synthetase; cited from earlier work
Raji cells = conditions: Tomoda et al. 1991; cited from earlier work

With `C=CCNC(=O)C1C(=C)C(=O)O[C@H]1CCCCCCCC` (mixture of isomers) [Compound 1, (±)-α-Methylene-γ-butyrolactone-5-octyl-4-allyl amide] the “Death of treated mice in xenograft study” value [1] was “One Compound 1 treated mouse died on day 10”.

In the case of `C/C=C/C/C=C/CCC(=O)[C@H]1O[C@H]1C(N)=O` [cerulenin, (2S,3R)-2,3-epoxy-4-oxo-7,10 dodecadienoyl amide], the “concentration for inhibition of viral HIV protease” value (viral HIV protease) is given as 5 mg/mL.

In the case of `CCCC=CCC=CC=CC=NN=NO` [Triacsin C, 1-hydroxy-3-(E, E, E-2′,4′,7′-undecatrienylidine) triazene], the pIC50 [2] is listed as 5.06 and the “concentration causing growth inhibition in Raji cells” value (Raji cells) is listed as 1.0 µM.
